Reference: patent US20250282828A1, “PEPTIDES FOR THE TREATMENT OF RESPIRATORY INFECTIONS OF VIRAL ORIGIN” (CENTRO DE INGENIERÍA GENÉTICA Y BIOTECNOLOGÍA, priority 2020, published 2025)
No end group written: not given here.

Legend:
SARS-CoV-2 [1] = assay: Prophylaxis in healthy contacts of COVID-19 patients (RT-qPCR of nasopharyngeal swabs); format: in vivo, human; details: Group II, intranasal drops 14 μg/mL daily for 6 days
Experimental: Healthy individuals, contacts of COVID-19 patients, were included in this study. Two groups of 25 healthy individuals exposed to a similar risk of contagion (Group I and Group II) were analyzed. Group II was treated daily, for 6 days, with the peptide identified in the Sequence Listing as SEQ ID NO: 1 as intranasal drops, at a concentration of 14 μg/mL. Nasopharyngeal swab samples were collected for SARS-CoV-2 detection by RT-qPCR (Roche). Sampling was carried out at the beginning of the study and 7 days after it began.

[2] = tested on: Parainfluenza virus type 3 (HPIV3); format: cell-based; details: 50 μM; HAE, 3 days
SARS-CoV-2 [3] = details: 72 h, 100 μM
SARS-CoV-2 [4] = assay: Treatment of patients infected by SARS-CoV-2 (RT-qPCR of nasopharyngeal swabs); format: in vivo, human; details: for SARS-CoV-2 negative patients/Total: chloroquine
Experimental: Human studies were conducted in accordance with the Declaration of Helsinki. […] The peptide was administered subcutaneously. The presence of SARS-CoV-2 viral RNA was determined by RT-qPCR (Roche) in nasopharyngeal swabs of the patients every 48 or 96 hours during 15 days. Four groups were formed, each with 20 patients, all in the initial stage of the disease and with similar characteristics. Group 1 patients received the most frequently used treatment in COVID-19 therapy based on Kaletra (Lopinavir/Ritonavir), chloroquine, and Heberon™ Alpha R (IFN α2b). Group 2 received this treatment, plus the peptide identified in the Sequence Listing as SEQ ID NO: 1. The latter was administered subcutaneously, at 2 mg/Kg of weight for 5 days. Group 3 patients received treatment based on Kaletra, chloroquine and a combined formulation of intramuscular IFN a2b (3.0 million international units, MIU) and IFN y (0.5 MIU). Patients in group 4 received the same treatment as Group 3, plus the peptide identified in the Sequence Listing as SEQ ID NO: 1 (2 mg/Kg of weight), subcutaneously for 5 days.

[5] = target: T1, extracellular domain of the ACE2 receptor (Homo sapiens, UniProt Q9BYF1); assay: BIACORE surface plasmon resonance interaction with immobilized peptide; format: binding
T1 construct: the extracellular domain of the ACE2 receptor
T1 sequence (Q9BYF1 18-740): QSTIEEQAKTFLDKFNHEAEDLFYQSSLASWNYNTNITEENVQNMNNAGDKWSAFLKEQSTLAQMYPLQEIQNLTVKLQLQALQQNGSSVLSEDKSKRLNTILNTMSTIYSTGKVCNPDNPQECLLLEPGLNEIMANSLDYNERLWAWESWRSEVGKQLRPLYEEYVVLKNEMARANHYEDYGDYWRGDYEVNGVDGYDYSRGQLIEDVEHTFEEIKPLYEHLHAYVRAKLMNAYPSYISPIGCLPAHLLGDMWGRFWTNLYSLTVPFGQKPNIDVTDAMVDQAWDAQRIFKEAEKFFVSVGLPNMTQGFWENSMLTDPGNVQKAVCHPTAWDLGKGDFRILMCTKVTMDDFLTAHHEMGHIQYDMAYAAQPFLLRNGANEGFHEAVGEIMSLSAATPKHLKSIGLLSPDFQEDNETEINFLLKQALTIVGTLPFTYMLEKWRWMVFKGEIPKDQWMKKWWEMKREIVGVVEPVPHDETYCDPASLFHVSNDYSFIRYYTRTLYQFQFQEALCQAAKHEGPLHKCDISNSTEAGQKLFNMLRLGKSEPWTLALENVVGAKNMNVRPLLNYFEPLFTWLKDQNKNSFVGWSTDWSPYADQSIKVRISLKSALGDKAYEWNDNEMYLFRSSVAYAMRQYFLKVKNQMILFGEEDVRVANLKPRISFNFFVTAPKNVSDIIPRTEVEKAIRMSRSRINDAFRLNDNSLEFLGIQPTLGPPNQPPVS

Dengue 2 virus = Dengue 2 virus replication in primary cultures of lung cells (PFU in VeroE6); format: cell-based; details: 100 μM, 48 hours
Experimental: The cultures were treated with the peptides for 2 or 24 hours, at concentrations of 0.01 to 100 μM before viral challenge. The medium was discarded and the cells were infected with Dengue 2 virus, at an MOI of 10 for 2 hours at 37° C. and 5% CO2. The virus was eliminated, a wash was then performed and the cultures were treated again with peptides in DMEM medium, and incubated for 48 hours at 37° C. and 5% CO2. Subsequently, the cultures were collected to assess viral performance on VeroE6 cells. For this, the cells were seeded in 24-well plates and when they reached confluence they were infected with serial 10-fold dilutions of the supernatants, incubated for 1 hour at 37° C. and 5% CO2. Next, a wash was carried out with PBS, and a layer of agar in 2× DMEM (1:1) added. The layer was allowed to solidify and incubated for 48 hours at 37° C. 5% CO2. The plates were stained with crystal violet, for the determination of the number of PFUs. The peptides inhibited between 68 and 88% of viral replication (Table 5).

SARS-CoV-2 [6] = details: 96 h, 50 μM
Protein N (SARS-CoV-2) = Protein N (SARS-CoV-2) (Severe acute respiratory syndrome coronavirus 2, UniProt P0DTC9); assay: BIACORE surface plasmon resonance interaction with immobilized peptide; format: binding
in vitro = details: pig, PK15 cells
[7] = tested on: vimentin intermediate filaments; assay: Immunodetection of vimentin intermediate filaments in MDBK cells; format: cell-based, bovine; details: 100 μM, 24 hours
Experimental: (§1) They were then fixed and permeabilized in a solution of acetone:methanol (1:1 V/V) for 10 min at −20° C. and blocked with 1% bovine serum albumin in phosphate buffered saline for 30 min, at 37° C. Vimentin intermediate filaments were detected using a murine anti-vimentin IgG1 monoclonal antibody (4.5 μg/mL) followed by an anti-mouse antibody conjugated to fluorescein isothiocyanate (1/200). Vimentin intermediate filaments (FI) were observed distributed throughout the cytoplasm, from the perinuclear region towards one or both poles of the cell.

[8] = target: receptor binding-domain of the viral S protein (RBD) (Severe acute respiratory syndrome coronavirus 2, UniProt P0DTC2); assay: BIACORE surface plasmon resonance interaction with immobilized peptide; set-up: species or system SARS-CoV-2
[9] = tested on: capsid protein of the Influenza H1N1 virus; assay: as above; format: binding
[10] = tested on: vimentin intermediate filaments; assay: Immunodetection of vimentin intermediate filaments in VeroE6 cells; format: cell-based, African green monkey; details: 100 μM, 24 hours
Experimental: as §1

ZIKV E protein (Zika) = target: T2, ZIKV E protein (Zika) (Zika virus, UniProt A0A024B7W1); assay: BIACORE surface plasmon resonance interaction with immobilized peptide; format: binding
T2 construct: the envelope protein of the Zika virus (ZIKV E)
T2 sequence (A0A024B7W1 291-794): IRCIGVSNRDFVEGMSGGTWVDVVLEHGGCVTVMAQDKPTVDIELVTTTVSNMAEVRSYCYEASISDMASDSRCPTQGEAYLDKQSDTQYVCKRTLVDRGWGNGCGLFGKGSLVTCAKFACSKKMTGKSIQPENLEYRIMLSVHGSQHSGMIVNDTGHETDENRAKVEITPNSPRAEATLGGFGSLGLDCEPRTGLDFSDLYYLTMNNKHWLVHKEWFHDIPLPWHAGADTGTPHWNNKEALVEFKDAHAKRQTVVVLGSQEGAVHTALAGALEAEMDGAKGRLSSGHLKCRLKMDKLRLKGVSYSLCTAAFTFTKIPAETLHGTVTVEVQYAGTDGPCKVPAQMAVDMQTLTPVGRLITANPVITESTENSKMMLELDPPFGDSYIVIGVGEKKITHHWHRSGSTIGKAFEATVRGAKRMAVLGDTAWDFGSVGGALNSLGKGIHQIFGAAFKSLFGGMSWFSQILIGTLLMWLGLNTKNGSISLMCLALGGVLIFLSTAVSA

Influenza A H1N1 = format: cell-based; details: 50 μM; tracheo-bronchial HAE
[11] = tested on: respiratory syncytial virus (RSV); assay: Respiratory syncytial virus replication in bronchial HAE (RT-qPCR); format: cell-based; details: 50 μM, 10 days

RVTQMNLNDRLASLYDKV [SEQ ID NO: 1]
SARS-CoV-2 positive cases (%) (SARS-CoV-2 [1]; Day 7): 3.9% | SARS-CoV-2 positive cases/Total (SARS-CoV-2 [1]; Day 7): 1/25 | SARS-CoV-2 positive cases (%) (SARS-CoV-2 [1]; Day of onset): 0% | SARS-CoV-2 positive cases/Total (SARS-CoV-2 [1]; Day of onset): 0/25 | Parainfluenza Type 3 Inhib. % [2]: 79% | Bronchial HAE Inhibition % (SARS-CoV-2 [3]): 84% | Nasal HAE Inhibition % (SARS-CoV-2 [3]): 74% | SARS-CoV-2 negative patients/Total (SARS-CoV-2 [4]; day 2, Groups 3/4: Kaletra, IFN a2b + IFN y without/with peptide 2 mg/Kg s.c. 5 days): 0/20 | SARS-CoV-2 negative patients/Total (SARS-CoV-2 [4]; day 2 after treatment onset, Groups 1/2: Kaletra, Heberon Alpha R without/with peptide 2 mg/Kg s.c. 5 days): 0/20 | SARS-CoV-2 negative patients/Total (SARS-CoV-2 [4]; day 4, Groups 1/2: Kaletra, Heberon Alpha R without/with peptide 2 mg/Kg s.c. 5 days): 16/20 | SARS-CoV-2 negative patients/Total (SARS-CoV-2 [4]; day 4, Groups 3/4: Kaletra, IFN a2b + IFN y without/with peptide 2 mg/Kg s.c. 5 days): 17/20 | SARS-CoV-2 negative patients/Total (SARS-CoV-2 [4]; day 6, Groups 1/2: Kaletra, Heberon Alpha R without/with peptide 2 mg/Kg s.c. 5 days): 20/20 | SARS-CoV-2 negative patients/Total (SARS-CoV-2 [4]; day 6, Groups 3/4: Kaletra, IFN a2b + IFN y without/with peptide 2 mg/Kg s.c. 5 days): 20/20 | SARS-CoV-2 negative patients/Total (SARS-CoV-2 [4]; day 10, Groups 1/2: Kaletra, Heberon Alpha R without/with peptide 2 mg/Kg s.c. 5 days): 20/20 | SARS-CoV-2 negative patients/Total (SARS-CoV-2 [4]; day 10, Groups 3/4: Kaletra, IFN a2b + IFN y without/with peptide 2 mg/Kg s.c. 5 days): 20/20 | SARS-CoV-2 negative patients/Total (SARS-CoV-2 [4]; day 14, Groups 1/2: Kaletra, Heberon Alpha R without/with peptide 2 mg/Kg s.c. 5 days): 20/20 | SARS-CoV-2 negative patients/Total (SARS-CoV-2 [4]; day 14, Groups 3/4: Kaletra, IFN a2b + IFN y without/with peptide 2 mg/Kg s.c. 5 days): 20/20 | SARS-CoV-2 negative patients/Total (SARS-CoV-2 [4]; day 20, Groups 1/2: Kaletra, Heberon Alpha R without/with peptide 2 mg/Kg s.c. 5 days): 20/20 | SARS-CoV-2 negative patients/Total (SARS-CoV-2 [4]; day 20, Groups 3/4: Kaletra, IFN a2b + IFN y without/with peptide 2 mg/Kg s.c. 5 days): 20/20 | patients negative for SARS-CoV-2 (SARS-CoV-2 [4]; fourth day after treatment onset, Group 2 (peptide + Kaletra, chloroquine, Heberon Alpha R)): 80% | patients negative for SARS-CoV-2 (SARS-CoV-2 [4]; fourth day after treatment onset, Group 4 (peptide + Kaletra, chloroquine, IFN a2b + IFN y)): 85% | patients negative for SARS-CoV-2 (SARS-CoV-2 [4]; sixth day after treatment onset, Group 2): 100% | patients negative for SARS-CoV-2 (SARS-CoV-2 [4]; sixth day after treatment onset, Group 4): 100% | interaction [5]: neither the RBD nor the ACE2 peptide interact | Dengue 2 Inhib. % (Dengue 2 virus): 81% | Inhibition % (SARS-CoV-2 [6]): 83.3% | interaction (signal RU) (Protein N (SARS-CoV-2); 10-200 nM): significant increase in signal | Kd (Protein N (SARS-CoV-2); analyte 10-200 nM): 3.58 nM | kd (Protein N (SARS-CoV-2); analyte 10-200 nM): 0.000972 s⁻¹ | Rmax (Protein N (SARS-CoV-2); analyte 10-200 nM, biotinylated peptide on SA chip): 329 RU | kon (Protein N (SARS-CoV-2); analyte 10-200 nM, read-out: ka): 271000 M⁻¹ s⁻¹ | CC50 at 96 h (in vitro): > 400000 nM | damage to cell integrity after treatment [7]: no damage to cell integrity was observed | interaction [8]: neither the RBD nor the ACE2 peptide interact | Kd [9]: 769 nM | interaction [9]: showed interaction | damage to cell integrity after treatment [10]: no damage to cell integrity was observed | Kd (ZIKV E protein (Zika)): 1590 nM | Rmax (ZIKV E protein (Zika)): 2.11 × 10^4 RU | interaction (ZIKV E protein (Zika)): showed interaction | kd (ZIKV E protein (Zika)): 0.00154 s⁻¹ | kon (ZIKV E protein (Zika); read-out: ka): 965 M⁻¹ s⁻¹ | Influenza A H1N1 Inhib. % (Influenza A H1N1): 86% | Sincitial respiratory virus Inhib. % [11]: 80%
